According to US20250144067A1, “PERSONALIZED STARVATION THERAPY FOR CANCER” (Faeth Therapeutics, Inc., priority 2021, published 2025):
Where a name gives a salt, the structure may show the parent alone. Read-outs that look alike come from different tables or passages of the source.

How the values were obtained:
[1] = tested on: NCI-H292 lung cancer cells; test: FDA drug screening, complete media vs cholesterol-free media with simvastatin (TABLE 2); type: cell-based, human
[2] = tested on: NCI-H292 lung cancer cells; test: FDA drug screening, complete media vs cholesterol-free media without statin (TABLE 1); type: cell-based, human
[3] = NCI-H292 cells, cholesterol-free media with simvastatin 0.04 μM, cell growth value in FDA drug screen
[4] = NCI-H292 cells, complete media, cell growth value in FDA drug screen
[5] = complete media minus cholesterol-free media + simvastatin, >0 enhanced anti-cancer activity, about 0 neutral, <0 antagonist
[6] = NCI-H292 cells, FDA drug library screen, complete media
[7] = NCI-H292 cells, FDA drug library screen, cholesterol-free media with simvastatin 0.04 μM
[8] = Complete minus Cholesterol-free, >0 enhanced anti-cancer activity, about 0 neutral, <0 antagonist
[9] = NCI-H292 cells, cholesterol-free media without statin, FDA drug library screen
[10] = NCI-H292 cells, complete media, FDA drug library screen
[11] = complete media vs cholesterol-free media + simvastatin (0.04 μM), >0 enhanced anti-cancer activity, about 0 neutral, <0 antagonist
[12] = NCI-H292 cells, cholesterol-free media without statin
[13] = complete vs cholesterol-free media, greater than 0 enhanced anti-cancer activity, about 0 neutral, below 0 antagonists
[14] = Complete minus Cholesterol-free, greater than 0 enhanced anti-cancer activity, about 0 neutral, below 0 antagonists
[15] = NCI-H292 cells in cholesterol-free media without statin
[16] = NCI-H292 cells in complete media
[17] = NCI-H292 cells, FDA library drug in cholesterol-free media with simvastatin 0.04 μM
[18] = NCI-H292 cells, FDA library drug in complete media

SMILES: CCOc1ccc(Cc2cc([C@]34OC[C@](CO)(O3)[C@@H](O)[C@H](O)[C@H]4O)ccc2Cl)cc1 [Ertugliflozin]
- Cholesterol-free media + simvastatin (0.04 μM) [1, 3]: 1.703
- Complete Media [1, 4]: 1.808
- Difference [1, 5]: 0.10
- Difference ([2]; Complete minus Cholesterol-free, greater than 0 enhanced anti-cancer activity, about 0 neutral, below 0 antagonist): −0.08
- Cholesterol-free ([2]; NCI-H292 cells, FDA drug library screen, cholesterol-free media without statin): 1.071
- Complete [2, 6]: 0.9907

SMILES: COc1cc(OC)c(C(=O)CCCN2CCCC2)c(OC)c1 [Buflomedil (hydrochloride)]
- Cholesterol-free media + simvastatin (0.04 μM) [1, 7]: 0.7629
- Complete Media [1, 6]: 1.555
- Difference [1, 5]: 0.79
- Difference [2, 8]: −0.02
- Cholesterol-free [2, 9]: 0.6014
- Complete [2, 10]: 0.5837

SMILES: O=C[C@H](O)[C@@H](O)[C@H](O)CO [Xylose]
- Cholesterol-free media + simvastatin (0.04 μM) [1, 7]: 1.188
- Complete Media [1, 6]: 1.083
- Difference [1, 11]: −0.11
- Cholesterol-free [2, 12]: 1.238
- Complete ([2]; NCI-H292 cells, complete media): 0.9044
- Difference [2, 13]: −0.33

SMILES: O=C1[C@H](CC[C@H](O)c2ccc(F)cc2)[C@@H](c2ccc(O)cc2)N1c1ccc(F)cc1 [Ezetimibe]
- Cholesterol-free media + simvastatin (0.04 μM) [1, 3]: 1.247
- Complete Media [1, 4]: 1.268
- Difference [1, 5]: 0.02
- Difference [2, 14]: −0.66
- Cholesterol-free [2, 15]: 1.871
- Complete [2, 16]: 1.209

SMILES: Cn1nnc2c(C(N)=O)ncn2c1=O [Temozolomide]
- Cholesterol-free media + simvastatin (0.04 μM) [1, 7]: 0.984
- Complete Media [1, 6]: 0.8242
- Difference [1, 11]: −0.16
- Cholesterol-free [2, 12]: 1.265
- Complete ([2]; NCI-H292 cells, complete media): 0.9503
- Difference [2, 13]: −0.31

SMILES: Cc1oc(=O)oc1COC(=O)C1=C([C@H]2CCCO2)S[C@@H]2[C@@H]([C@@H](C)O)C(=O)N12 [Faropenem daloxate]
- Cholesterol-free media + simvastatin (0.04 μM) [1, 7]: 1.071
- Complete Media [1, 6]: 0.9664
- Difference [1, 11]: −0.10
- Difference [2, 14]: −0.54
- Cholesterol-free [2, 15]: 1.449
- Complete [2, 16]: 0.9042

SMILES: O=C(O)Cc1ccccc1Nc1c(Cl)cccc1Cl [Diclofenac]
- Cholesterol-free media + simvastatin (0.04 μM) [1, 17]: 1.089
- Complete Media [1, 18]: 0.821
- Difference [1, 11]: −0.27
- Difference [2, 8]: −0.25
- Cholesterol-free [2, 12]: 1.167
- Complete ([2]; NCI-H292 cells, complete media): 0.917

SMILES: O=C(O)c1cn(C2CC2)c2cc(N3CCNCC3)c(F)cc2c1=O [Ciprofloxacin]
- Cholesterol-free media + simvastatin (0.04 μM) [1, 3]: 0.9642
- Complete Media [1, 4]: 1.043
- Difference [1, 5]: 0.08
- Cholesterol-free [2, 12]: 1.503
- Complete ([2]; NCI-H292 cells, complete media): 1.066
- Difference [2, 13]: −0.44

SMILES: CCCC(CCC)C(N)=O [Valpromide]
- Cholesterol-free media + simvastatin (0.04 μM) [1, 7]: 1.404
- Complete Media [1, 6]: 1.717
- Difference [1, 5]: 0.31
- Difference [2, 8]: −0.27
- Cholesterol-free [2, 12]: 1.075
- Complete ([2]; NCI-H292 cells, complete media): 0.8044

SMILES: NCCCC(N)(C(=O)O)C(F)F (stereo not drawn) [Eflornithine (hydrochloride hydrate)]
- Cholesterol-free media + simvastatin (0.04 μM) ([1]; NCI-H292 cells, drug in cholesterol-free media with simvastatin 0.04 μM): 1.426
- Complete Media ([1]; NCI-H292 cells, drug in complete media): 1.224
- Difference [1, 11]: −0.20
- Difference [2, 8]: −0.22
- Cholesterol-free [2, 12]: 0.965
- Complete ([2]; NCI-H292 cells, complete media): 0.7419

SMILES: c1ccc2c(c1)CCCC2C1=NCCN1 (stereo not drawn) [Tetrahydrozoline (hydrochloride)]
- Cholesterol-free media + simvastatin (0.04 μM) [1, 7]: 1.06
- Complete Media [1, 6]: 0.9332
- Difference [1, 11]: −0.13
- Difference [2, 8]: −0.03
- Cholesterol-free [2, 9]: 0.9833
- Complete [2, 10]: 0.9541

SMILES: C[C@H](CS)C(=O)N1CCC[C@H]1C(=O)O [Captopril]
- Cholesterol-free media + simvastatin (0.04 μM) ([1]; NCI-H292 cells, cholesterol-free media with simvastatin 0.04 μM, FDA drug library screen (TABLE 2)): 0.8354
- Complete Media ([1]; NCI-H292 cells, complete media, FDA drug library screen (TABLE 2)): 0.832
- Difference ([1]; complete media minus cholesterol-free media + simvastatin (0.04 μM), >0 enhanced anti-cancer activity, about 0 neutral, <0 antagonist): 0.00
- Difference [2, 8]: −0.19
- Cholesterol-free [2, 12]: 0.897
- Complete ([2]; NCI-H292 cells, complete media): 0.704

SMILES: CC1(C)[C@H](C(=O)O)N2C(=O)C[C@H]2S1(=O)=O [Sulbactam]
- Cholesterol-free media + simvastatin (0.04 μM) [1]: 1.06
- Complete Media [1]: 1.241
- Difference [1]: 0.18
- Cholesterol-free [2]: 1.094
- Complete [2]: 1.056
- Difference [2]: −0.04

SMILES: CC(C)(C)NCC(O)COc1cccc2c1CC(O)C(O)C2 (stereo not drawn) [Nadolol]
- Cholesterol-free media + simvastatin (0.04 μM) [1, 17]: 1.308
- Complete Media [1, 18]: 1.014
- Difference [1, 11]: −0.29
- Difference [2, 8]: −0.30
- Cholesterol-free [2, 12]: 1.37
- Complete ([2]; NCI-H292 cells, complete media): 1.069
